According to patent US7989165B2, “Tape stripping methods for analysis of skin disease and pathological skin state” (DermTech International, priority 2004, dated 2011):
Where “and” joins values, the source holds several entries; their conditions need not be identical. Equal values may be shown once.

Experiments:
Type in all cases: in vivo, human
[1] = test system: IFNγ mRNA; assay: RT-PCR of IFNγ mRNA in tape-stripped psoriatic lesions during Enbrel treatment; settings: week 8 of treatment
Protocol: (§1) Patients were treated with Enbrel™ (Etanercept) over a period of months. Both before treatment commenced (week 0) and at various time points during treatment, a lesion was tape stripped using the synthetic rubber-based adhesive MA70 (Adhesives Research) on a polyurethane film. Adhesive strips were manufactured as circles of 17 mm diameter. Skin sites were sequentially stripped with 4 individual tapes, with each tape applied and removed once. The RNA isolated from the adherent cells on all 4 tapes (from one site) was pooled into one sample. Quantitation was by quantitative RT-PCR using the comparative method with β-actin mRNA as the internal normalizing mRNA standard and calibration achieved by using population average values for ΔCt in uninvolved skin of psoriatic subjects (Table 1).

[2] = test system: GAPDH mRNA; assay: RT-PCR of GAPDH mRNA in tape-stripped psoriatic lesions during Enbrel treatment; settings: week 8 of treatment
Protocol: as §1

[3] = test system: TNFα mRNA; assay: RT-PCR of TNFα mRNA in tape-stripped psoriatic lesions during Enbrel treatment; settings: week 8 of treatment
Protocol: as §1

[4] = test system: psoriasis; assay: Clinical assessment of psoriasis (NPF Score) during Enbrel treatment; parameters: NPF Score: scale not given here
Protocol: as §1
Rather than calibrate the lesion samples to uninvolved skin of each patient, we have chosen to calibrate to population average values to gain a fold-change relative to non-psoriatic skin. The results of calibrating to each patient's uninvolved skin values were virtually identical (data not shown). […] Thus, positive changes in ΔCt values of these specific mRNAs are negatively correlated with the change from baseline at week 8 in NPF scores. […] In order to assess the significance this observation, the AC, and NPF data in Table 10 was analyzed.

[5] = test system: IL-12B mRNA; assay: RT-PCR of IL-12B mRNA in tape-stripped psoriatic lesions during Enbrel treatment; settings: week 8 of treatment
Protocol: as §1

[6] = test system: IL-23A mRNA; assay: RT-PCR of IL-23A mRNA in tape-stripped psoriatic lesions during Enbrel treatment; settings: week 8 of treatment
Protocol: as §1

[7] = psoriatic lesion, tape-harvested RNA, relative to β-actin mRNA, one value per patient (P2-P7)

Enbrel
Fold Change (Pop-UIS), INFγ mRNA ([1]; INFγ/β-actin mRNA ratio in lesion relative to population average of uninvolved skin, per patient): 0.59 fold and 48.17 fold and 1.49 fold and 8.17 fold and 2.58 fold and 3.25 fold
ΔCt (Lesion), INFγ mRNA [1, 7]: 11.27 and 4.91 and 9.92 and 7.47 and 9.13 and 8.8
Fold Change (Pop-UIS), GAPDH mRNA ([2]; GAPDH/β-actin mRNA ratio in lesion relative to population average of uninvolved skin, per patient): 2.04 fold and 1.69 fold and 1.59 fold and 1.40 fold and 1.77 fold and 2.07 fold
ΔCt (Lesion), GAPDH mRNA [2, 7]: 1.04 and 1.31 and 1.4 and 1.58 and 1.25 and 1.02
Fold Change (Pop-UIS), TNFα mRNA ([3]; TNFα/β-actin mRNA ratio in lesion relative to population average of uninvolved skin, per patient): 10.06 fold and 16.56 fold and 5.66 fold and 9.00 fold and 11.47 fold and 17.27 fold
ΔCt (Lesion), TNFα mRNA [3, 7]: 4.99 and 4.27 and 5.82 and 5.15 and 4.8 and 4.21
NPF Score ([4]; National Psoriasis Foundation Score at week 8 of treatment, one value per patient (P2-P7)): 10.7 (5×) and 10.3 (5×) and 16.7 (5×) and 18.7 (5×) and 11.7 (5×) and 12 (5×)
change in NPF score from baseline to week 8 ([4]; psoriatic patients, 8 weeks of treatment, negative indicates improvement in disease): negative
Fold Change (Pop-UIS), IL-12B mRNA ([5]; IL-12B/β-actin mRNA ratio in lesion relative to population average of uninvolved skin, per patient): 0.51 fold and 9.45 fold and 5.31 fold and 11.24 fold and 27.86 fold and 105.42 fold
ΔCt (Lesion), IL-12B mRNA [5, 7]: 12.48 and 7.35 and 9.09 and >8.01 and 6.7 and 4.78
Fold Change (Pop-UIS), IL-23A mRNA ([6]; IL-23A/β-actin mRNA ratio in lesion relative to population average of uninvolved skin, per patient): 5.43 fold and 24.25 fold and 5.70 fold and 9.99 fold and 17.03 fold and 18.64 fold
ΔCt (Lesion), IL-23A mRNA [6, 7]: 6.59 and 4.85 and 6.52 and 5.71 and 4.94 and 4.81
